This passage reports IC50 results from patent US6645726B1, “Canine growth hormone secretagogue receptor” (Merck & Co., Inc., priority 1998, dated 2003).

Test [1] addresses T1, native canine pituitary GHSR (Canis lupus familiaris, UniProt A5HKU8).
T1 construct: native canine pituitary GHSR; from tissue; host or cells: canine pituitary
The test can be described thus: [35S]-MK-677 competition binding, native canine pituitary GHSR. The following applies: comparison value.

Another test has as its target T2, cloned canine GHSR (Canis lupus familiaris, UniProt A5HKU8).
T2 construct: full-length open reading frame placed in the mammalian expression vector pcDNA-3; expressed in transfected cells; host or cells: COS-7 or HEK-293 (crude membranes)
The test can be described thus: [35S]-MK-677 competition binding, cloned canine GHSR membranes. The note with it: competition with 35S-MK-677, crude membranes of transfected COS-7 or HEK-293 cells, 20° C., 1 hr. The method, then: Expression of the canine -GHSR was monitored using a [^35S]-MK-677 binding assay conducted on cells transfected with a canine GHSR expression plasmid (full-length open reading frame placed in the mammalian expression vector pcDNA-3). Mammalian cells (COS-7, HEK-293) were transfected with GHSR expression plasmids using Lipofectamine (GIBCO-BRL; Hawley-Nelson, 1993, Focus 15:73). Transfections were performed in 60 mm dishes on 80% confluent cells (approximately 4×10^5cells) with 8 μg of Lipofectamine and 32 μg of GHSR plasmid DNA.
Binding of ^35S-MK-677 to crude membranes prepared from COS-7 or HEK-293 cells transfected with GHSR expression plasmids was conducted. Crude cell membranes from COS-7 transfectants were prepared on ice, 48 hrs post-transfection. Each 60 mm dish was washed twice with 3 ml of PBS, once with 1 ml homogenization buffer (50 mM Tris-HCl (pH 7.4), 5 mM MgCl2, 2.5 mM EDTA, 30 μg/ml bacitracin). 0.5 ml of homogenization buffer was added to each dish, cells were removed by scraping and then homogenized using a POLYTRON device (Brinkmann, Syosset, N.Y.; 3 bursts of 10 seconds at setting 4). […] After application of the membrane suspension to the filter, the filters were washed 3 times with 3 ml each of ice cold 50 mM Tris-HCl (pH 7.4), 10 mM MgCl2, 2.5 mM-EDTA, and 0.015% Triton X-100, and the bound radioactivity on the filters was quantitated by scintillation counting.

The structures appear in SMILES notation.

T1 sequence (A5HKU8 1-349): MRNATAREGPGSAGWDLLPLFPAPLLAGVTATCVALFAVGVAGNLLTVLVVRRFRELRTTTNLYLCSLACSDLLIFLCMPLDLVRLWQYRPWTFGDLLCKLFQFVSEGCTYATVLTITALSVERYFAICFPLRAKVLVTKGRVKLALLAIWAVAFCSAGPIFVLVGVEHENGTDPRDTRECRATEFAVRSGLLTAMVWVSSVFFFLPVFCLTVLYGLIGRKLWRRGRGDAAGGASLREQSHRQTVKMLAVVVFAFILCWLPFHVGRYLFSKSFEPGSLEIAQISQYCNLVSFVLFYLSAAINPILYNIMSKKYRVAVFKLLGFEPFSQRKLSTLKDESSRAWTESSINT
T2 sequence (A5HKU8 1-349): as above

One may read the IC50 as the concentration that gives 50% inhibition. Consider `CC(C)(N)C(=O)N[C@H](COCc1ccccc1)C(=O)N1CCC2(CC1)CN(S(C)(=O)=O)c1ccccc12` [MK-677], for which the values for the IC50 (in test [1]; at cloned canine GHSR) were 1 nM and 2.2 nM, respectively.
